Legend:
Protease = Protease (Human immunodeficiency virus 1, UniProt Q9YQ12); test: Binding affinity to HIV1 protease by ITC analysis
[1] = Inhibition of pepsin (unknown origin); set-up: species or system Homo sapiens
Cathepsin D = Cathepsin D (Homo sapiens, UniProt P07339); test: Inhibition of cathepsin D (unknown origin)
Cathepsin D, sequence (P07339 65-162 limits assumed): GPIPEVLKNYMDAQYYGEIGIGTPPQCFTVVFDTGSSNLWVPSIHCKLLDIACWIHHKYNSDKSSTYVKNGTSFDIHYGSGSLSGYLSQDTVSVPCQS
Cathepsin D, sequence (P07339 169-412 limits assumed): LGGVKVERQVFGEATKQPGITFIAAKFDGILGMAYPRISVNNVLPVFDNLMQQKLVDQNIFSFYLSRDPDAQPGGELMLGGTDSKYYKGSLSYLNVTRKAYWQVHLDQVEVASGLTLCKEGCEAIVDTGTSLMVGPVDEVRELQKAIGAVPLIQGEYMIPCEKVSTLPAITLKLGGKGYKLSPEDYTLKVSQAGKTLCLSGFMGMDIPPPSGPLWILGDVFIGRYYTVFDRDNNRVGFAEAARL

Protease, sequence (Q9YQ12 whole entry): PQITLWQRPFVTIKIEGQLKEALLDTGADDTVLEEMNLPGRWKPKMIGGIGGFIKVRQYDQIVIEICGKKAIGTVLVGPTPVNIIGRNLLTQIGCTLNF

Kd (Protease) [nM]	Kd [1] [nM]	Kd (Cathepsin D) [nM]	SMILES
0.013			CSC[C@H](NC(=O)COc1cccc2cnccc12)C(=O)N[C@@H](Cc1ccccc1)[C@H](O)C(=O)N1CSC(C)(C)C1C(=O)N[C@H]1c2ccccc2C[C@H]1O (stereo partly drawn)
0.021			CC1(C)SCN(C(=O)[C@@H](O)[C@H](Cc2ccccc2)NC(=O)[C@H](CS(C)(=O)=O)NC(=O)COc2cccc3cnccc23)C1C(=O)N[C@H]1c2ccccc2C[C@H]1O (stereo partly drawn)
11.8	850	142	CC1(C)SCN(C(=O)[C@@H](O)[C@H](Cc2ccccc2)NC(=O)COc2ccccc2)C1C(=O)N[C@H]1c2ccccc2C[C@H]1O (stereo partly drawn)
0.14	345	22	Cc1cccc(C)c1OCC(=O)N[C@@H](Cc1ccccc1)[C@H](O)C(=O)N1CSC(C)(C)C1C(=O)N[C@H]1c2ccccc2C[C@H]1O (stereo partly drawn)

Source: ChEMBL document CHEMBL2434968, “The thermodynamic basis for the use of lipophilic efficiency (LipE) in enthalpic optimizations” (Bioorg Med Chem Lett, 2013)
